Assay results: patent US7572872B2, “Biomimetic materials comprising polyhedral oligomeric silsesquioxanes” (priority 2005, dated 2009)

Key:
fibroblasts = test: Fibroblast adhesion on POSS-coated titanium; assay type: cell-based; conditions: from Table 2 findings
Experimental: (§1) [(RSiO1.5)4(Rl(OH)SiO1.0)3]Σ7 (1 g) was dissolved in dichlormethane and sprayed onto metallic titanium samples. The samples were then dried at 110° C. for 2 hours.
(§2) Experimental samples with 50% surface coverage of POSS were exposed to osteoblasts and fibroblasts cultured in Dulbecco's modified eagle medium (DMEM), supplemented with 10% fetal bovine serum (FBS) and 1% penicillin streptomycin (P/S), under standard cell culture conditions (sterile chamber maintained at 37° C. and a humidified environment: 5% CO2/95% air). The stock solutions were supplied by HyClone.
(§3) For this purpose, osteoblasts, and fibroblasts were separately seeded (10,000 cells cm^2) onto the experimental titanium substrate, and were allowed to adhere in standard cell culture conditions for 48 hours. After the prescribed time period, substrates were rinsed three times using phosphate-buffered saline (PBS) to remove non-adherent cells. The adhered cells were fixed with formaldehyde (Fisher), stained with Hoechst 33 258 dye (Sigma), and counted using fluorescence microscopy (365 nm excitation and 400 nm emission wavelengths). The findings in Table 2 indicate a clear differentiation in binding a cellular modulation relative to the type of R group present on the cage.
(§4) All experiments were run in triplicate, and repeated three different times.

[1] = tested on: cuts through the endermal skin layer; test: FibroPOSS treatment of cuts in a human arm; assay type: in vivo
Experimental: Based upon the differentiation from Example 1, a series of in vivo FibroPOSS examinations was made using [(isoOctylSiO1.5)4(isoOctyl(OH)SiO1.0)3]Σ7 and [([…])8]Σ8. In a human arm a series of six cuts were made through the endermal skin layer.
The top two cuts were treated with 100% [(isoOctylSiO1.5)4(isoOctyl(OH)SiO1.0)3]Σ7(SO1455) and [(isoOctylSiO1.5)8]Σ8 (MS0805).
The middle two cuts had 50/50 SO1450+bactin antibiotic and 50/50 MS0805+bactin antibiotic.
The bottom left cuts had 100% bactin antibiotic and the bottom right cut had no treatment.

[2] = Dispersion of POSS compounds in personal care and cosmetic products; assay type: physicochemical; conditions: approximately 5% POSS by weight
Experimental: In light of the observed cellular differentiation and modulation promoted by nanostructured chemicals, a series of POSS, POS and POMS were added to conventional personal care and cosmetic products. […] A summary of the products and finding is listed below.
Each sample prepared consisted of approximately 5% of POSS by weight and was inspected visually and by biometric techniques for the dispersion of the POSS compound. The products in which the POSS compounds could be dispersed without being felt are listed under the POSS compounds studied.

osteoblasts = test: Osteoblast adhesion on POSS-coated titanium; assay type: cell-based; conditions: from Table 2 findings
Experimental: as §1, §2, §3, §4

bone = test: Bone formation in vitro (OsteoPOSS); assay type: cell-based; conditions: FIG. 6
rat calvaria bone defect = test: POSS-bone samples implanted in vivo into rat calvaria as a bone defect; conditions: eight POSS-bone samples 5 mm in length; examined after one month

Molecule | Fibroblast binding preference by R group on the cage (fibroblasts) | Bleeding of cut after treatment [1] | Clotting of cut after treatment [1] | Observation on product after POSS addition ([2]; Dial Antibacterial Hand Soap) | Observation on product after POSS addition ([2]; Isoplus Styling Gel) | Observation on product after POSS addition ([2]; Ivory Hand Soap) | Observation on product after POSS addition ([2]; Right Guard Deodorant) | Observation on product after POSS addition ([2]; Suave Shampoo) | Osteoblast binding preference by R group on the cage (osteoblasts) | Bone formation in vitro (bone) | Appearance of bone implantation site (rat calvaria bone defect)
[(isoOctylSiO1.5)4(isoOctyl(OH)SiO1.0)3]Σ7 [SO1455] | fibroplasts preferred | did not show any bleeding | nor was visible clotting observed | remained clear | became thicker | remained clear | became thicker | remained clear | – | – | –
[(isoOctylSiO1.5)8]Σ8 [MS0805] | – | did not show any bleeding | nor was visible clotting observed | – | – | – | – | – | – | – | –
O[Si]1(c2ccccc2)O[Si]2(c3ccccc3)O[Si](O)(c3ccccc3)O[Si]3(c4ccccc4)O[Si](O)(c4ccccc4)O[Si](c4ccccc4)(O1)O[Si](c1ccccc1)(O2)O3 (stereo not shown) [[(phenylSiO1.5)4(phenyl(OH)SiO1.0)3]Σ7] | – | – | – | – | – | – | – | – | osteoblast exhibited a preference | form bone in vitro | indistinguishable from normal rat bone
